This is an account of results in US20220364179A1, “METHODS AND COMPOSITIONS FOR ASSESSING AND PREDICTING THERAPEUTIC RESPONSE” (Lankenau Institute for Medical Research, priority 2019, published 2022).

For one assay, the system named is mouse tumor models. Particulars: cited from earlier work.
In a further assay the test system is brain metastases. As to the kind of experiment: whole brain radiotherapy with low-dose chloroquine in patients with brain metastases. The class given is in vivo, human. The conditions noted are these: low-dose chloroquine in continuous cycles one week before and during standard of care irradiation; N=20; P=0.07.
The subject of assay [1] is metastatic adenocarcinoma of the pancreas. As to the kind of experiment: Phase I/II trial NCT02077881: indoximod with gemcitabine plus nab-paclitaxel, responses by IDO2 genotype. The conditions noted are these: for PR + CR (positive response), row % / PR + CR, number of patients: + gemcitabine plus nab-paclitaxel. The format is in vivo, human. As for the experimental part:
The treatment protocol was as described in ClinicalTrials.gov Identifier NCT02077881, which was a Phase I/II trial designed to evaluate the combination of the immunotherapeutic agent indoximod (an IDO inhibitor) and the standard of care chemotherapy gemcitabine plus nab-paclitaxel in subjects with metastatic adenocarcinoma of the pancreas. Participants received oral indoximod (600 mg, […], or 1200 mg according to their assigned dose cohort) twice daily for 28 days concurrently with IV Nab-paclitaxel 125 mg/m^2 given intravenously over 30-40 minutes for 3 weeks (days 1, 8 and 15) with 1 week rest, followed by gemcitabine 1000 mg/m^2 given intravenously over 30 minutes for 3 weeks (days 1, 8 and 15) with 1 week rest. All subjects will receive the standard 28-day gemcitabine plus nab-paclitaxel regimen. Twice daily oral indoximod was administered concurrently in continuous 28 day cycles. Patients continued until they experienced disease progression or significant toxicity.
Genotyping to detect the wild-type IDO2 alleles or a polymorphisms in one or both alleles was performed using a protocol as provided in Example 2.
Two-sample tests of independent proportions were performed to compare the percentage of positive responders between two groups. Observed versus expected genotype distributions were compared using one-sample tests of proportions. The significance level was set to 0.05 and all tests were one-sided except for the tests comparing response by sex and the tests comparing observed and expected genotypes. Analyses were performed in Stata/MP 15.1 (StataCorp LP., Texas, USA). See the data in FIG. 6A -6D.

Another assay concerns melanoma. The experiment in a line: melanoma cohort, response to therapy by IDO2 genotype. The format is in vivo, human. As for the experimental part: In the melanoma cohort, 84 patients were genotyped with 6 patients returning uncertain results. The remaining 78 patients, including 52 males and 26 females, were treated and analyzed in a similar way to the PDAC patients of Example 3 above. The results of the 46 patients, including 31 males and 15 females, in this cohort that responded positively to IDO and/or other indicated therapies were also analyzed.

The next assay concerns rheumatoid arthritis. The conditions noted are these: mouse model of rheumatoid arthritis; Merlo et al. 2014; cited from earlier work.
The mark [2] stands for this setting: Females, all genotypes, no exclusions, Total 40.
The mark [3] stands for this setting: Females, excludes (+/p or p/p) uncertain genotype, Total 32.
Setting [4] is: Males, all genotypes, no exclusions, Total 67.
The mark [5] stands for this setting: Males, excludes (+/p or p/p) uncertain genotype, Total 47.
The mark [6] stands for this setting: genotype +/+ or +/p, both sexes, Total 56.
[7] abbreviates: genotype +/+ or +/p, females only, Total 22.
Setting [8] is: genotype +/+ or +/p, males only, Total 34.
Setting [9] is: genotype +/+, both sexes, excludes uncertain genotype, Total 15.
Where [10] appears, read: genotype +/+, females only, excludes uncertain genotype, Total 7.
The mark [11] stands for this setting: genotype +/+, males only, excludes uncertain genotype, Total 8.
[12] abbreviates: genotype +/p, both sexes, excludes uncertain genotype, Total 41.
Setting [13] is: genotype +/p, females only, excludes uncertain genotype, Total 15.
[14] abbreviates: genotype +/p, males only, excludes uncertain genotype, Total 26.
The mark [15] stands for this setting: genotype p/p, both sexes, excludes uncertain genotype, Total 23.
Where [16] appears, read: genotype p/p, females only, excludes uncertain genotype, Total 10.
Setting [17] is: genotype p/p, males only, excludes uncertain genotype, Total 13.

The structures appear in SMILES notation.

Take `Cn1cc(CC(N)C(=O)O)c2ccccc21` [D, L-1MT]: in the assay with mouse tumor models, the “effect on efficacy of radiotherapy” value is reported as “improve the efficacy of radiotherapy”.

For the compound `CCN(CC)CCCC(C)Nc1ccnc2cc(Cl)ccc12` (stereo not drawn) [chloroquine], in the assay with brain metastases, the survival outcomes was “trend in improvement of survival outcomes”.

With `Cn1cc(C[C@H](N)C(=O)O)c2ccccc21` [indoximod, 1-methyl-tryptophan], the “PR + CR (positive response), row %” value came out at 60.0% in assay [1] (setting [2]); 62.5% in assay [1] (setting [3]); 43.3% in assay [1] (setting [4]); 51.1% in assay [1] (setting [5]); 35.3% in assay [1] (both sexes, includes uncertain genotype, Total 51); 62.5% in assay [1] (setting [6]). For the same compound, the “PR + CR (positive response), row %” value in assay [1] (setting [7]) is given as 68.2%; in assay [1] (setting [8]) it was 58.8%; in assay [1] (setting [9]), 53.3%; in assay [1] (setting [10]), 42.9%; in assay [1] (setting [11]), 62.5%; in assay [1] (setting [12]), 65.9%. The “PR + CR (positive response), row %” value came out at 80.0% in assay [1] (setting [13]); 57.7% in assay [1] (setting [14]); 39.1% in assay [1] (setting [15]); 50.0% in assay [1] (setting [16]); 30.8% in assay [1] (setting [17]); 27.3% in assay [1] (males only, includes uncertain genotype, Total 33). For the same compound, the “PR + CR, number of patients” value is 24 in assay [1] (setting [2]); 20 in assay [1] (setting [3]); 29 in assay [1] (setting [4]); 24 in assay [1] (setting [5]); 44 in assay [1] (both sexes, excludes (+/p or p/p) uncertain genotype, Total 79); 18 in assay [1] (genotype (+/p or p/p) or p/p, both sexes, includes uncertain genotype, Total 51). Further, the “PR + CR, number of patients” value in assay [1] (genotype (+/p or p/p) or p/p, males only, includes uncertain genotype, Total 33) was 9; in assay [1] (setting [6]), 35; in assay [1] (setting [7]), 15; in assay [1] (setting [8]), 20; in assay [1] (setting [9]) it was 8; in assay [1] (setting [10]), 3. The “PR + CR, number of patients” value was determined as 5 in assay [1] (setting [11]); 27 in assay [1] (setting [12]); 12 in assay [1] (setting [13]); 15 in assay [1] (setting [14]); 9 in assay [1] (setting [15]); 5 in assay [1] (setting [16]). Moreover, the “PR + CR, number of patients” value in assay [1] (setting [17]) is recorded as 4; in assay [1] (whole cohort, both sexes, no exclusions, Total 107) it was 53. Further, in assay [1] (in combination with gemcitabine in PDAC patients, patients harboring functional IDO2 alleles, initial cohort), the “therapeutic responses, outcomes stratified to IDO2 genotype” value was “trend in improved therapeutic responses”. Moreover, the “more frequent response than the expected population” value in the assay with melanoma (female cohort, patients with the +/+ or +/p alleles) worked out at 41%. Also, the “less frequent response than the expected population” value with melanoma (female patients without the active allele (p/p)) was determined as 70%. Moreover, the overall survival entry in the assay with melanoma (inactive IDO2 genetic configuration, adjuvant radiotherapy including treatment with indoximod) is reported as “extended overall survival”. For the same compound, in the assay on rheumatoid arthritis, the “therapeutic responses after deletion of the IDO2 gene” value is reported as “ablate therapeutic responses”.
